In PubChem BioAssay AID330 (DTP/NCI, 2004):
Where “and” joins values, the source holds several entries; their conditions need not be identical. Equal values may be shown once. Toxic doses and inconclusive results are not listed.

System: P388 leukemia ip, CD2F1 mice, survival T/C
Assay: NCI In Vivo Anticancer Drug Screen. Data for tumor model P388 Leukemia (intraperitoneal) in CD2F1 (CDF1) mice
Conditions: endpoint: median survival time, higher = longer survival
In short: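 Mice carrying the transplanted tumor received test compound or vehicle. Survival was recorded in each group, and the value is the treated-group measurement divided by that of the vehicle-treated control group.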

[1] = dose: 50.0 mg/kg/injection, schedule: Q01DX005 (ip), vehicle: saline with Tween-80
[2] = dose: 100.0 mg/kg/injection, schedule: Q01DX005 (ip), vehicle: saline with Tween-80
[3] = dose: 200.0 mg/kg/injection, schedule: Q01DX005 (ip), vehicle: saline with Tween-80
[4] = dose: 100.0 mg/kg/injection, schedule: Q01DX001 (ip), vehicle: Klucel (hydroxypropylcellulose) (HPC)
[5] = dose: 200.0 mg/kg/injection, schedule: Q01DX001 (ip), vehicle: Klucel (hydroxypropylcellulose) (HPC)
[6] = dose: 400.0 mg/kg/injection, schedule: Q01DX001 (ip), vehicle: Klucel (hydroxypropylcellulose) (HPC)
[7] = dose: 50.0 mg/kg/injection, schedule: Q01DX005 (ip), vehicle: Klucel (hydroxypropylcellulose) (HPC)
[8] = dose: 100.0 mg/kg/injection, schedule: Q01DX005 (ip), vehicle: Klucel (hydroxypropylcellulose) (HPC)
[9] = dose: 60.0 mg/kg/injection, schedule: Q01DX005 (ip), vehicle: saline with Tween-80
[10] = dose: 120.0 mg/kg/injection, schedule: Q01DX005 (ip), vehicle: saline with Tween-80
[11] = dose: 240.0 mg/kg/injection, schedule: Q01DX005 (ip), vehicle: saline with Tween-80
[12] = dose: 25.0 mg/kg/injection, schedule: Q01DX005 (ip), vehicle: Klucel (hydroxypropylcellulose) (HPC)
[13] = dose: 50.0 mg/kg/injection, schedule: Q01DX009 (ip), vehicle: saline
[14] = dose: 100.0 mg/kg/injection, schedule: Q01DX009 (ip), vehicle: saline
[15] = dose: 200.0 mg/kg/injection, schedule: Q01DX009 (ip), vehicle: saline
[16] = dose: 7.5 mg/kg/injection, schedule: Q01DX005 (ip), vehicle: Klucel (hydroxypropylcellulose) (HPC)
[17] = dose: 15.0 mg/kg/injection, schedule: Q01DX005 (ip), vehicle: Klucel (hydroxypropylcellulose) (HPC)

Compound: O=c1[nH]c2ccccc2c(=O)n1-c1ccco1
- T/C (dose: 100.0 mg/kg/injection, schedule: Q04DX002 (ip), vehicle: saline): 100 % of control
- T/C (dose: 200.0 mg/kg/injection, schedule: Q04DX002 (ip), vehicle: saline): 102 % of control
- T/C (dose: 400.0 mg/kg/injection, schedule: Q04DX002 (ip), vehicle: saline): 101 % of control

Compound: COC(=O)c1[nH]cnc1O
- T/C (dose: 50.0 mg/kg/injection, schedule: Q01DX005 (ip), vehicle: water): 103 % of control
- T/C (dose: 100.0 mg/kg/injection, schedule: Q01DX005 (ip), vehicle: water): 113 % of control
- T/C (dose: 200.0 mg/kg/injection, schedule: Q01DX005 (ip), vehicle: water): 103 % of control

Compound: NS(=O)(=O)c1ccc(N=c2c3ccccc3n(-c3ccccc3)c3ccccc23)cc1
- T/C [1]: 102 % of control
- T/C [2]: 93 % of control
- T/C [3]: 90 % of control

Compound: O=C1OC(c2ccccc2)=N/C1=C/c1c(Cl)n(-c2ccccc2)c2ccccc12
- T/C [4]: 96 % of control
- T/C [5]: 94 % of control
- T/C [6]: 93 % of control

Compound: C=C1CC=CC(C)(C)C12CC(Br)C(C)(Cl)CC2O (stereo not given)
- T/C (dose: 10.0 mg/kg/injection, schedule: Q01DX009 (ip), vehicle: Klucel (hydroxypropylcellulose) (HPC)): 115 % of control
- T/C (dose: 20.0 mg/kg/injection, schedule: Q01DX009 (ip), vehicle: Klucel (hydroxypropylcellulose) (HPC)): 109 % of control
- T/C (dose: 40.0 mg/kg/injection, schedule: Q01DX009 (ip), vehicle: Klucel (hydroxypropylcellulose) (HPC)): 106 % of control

Compound: Cn1cc(C(=O)O)c(=O)c2ccc(/C=C/c3ccc([N+](=O)[O-])o3)nc21
- T/C (dose: 3.12 mg/kg/injection, schedule: Q01DX009 (ip), vehicle: saline): 92 % of control
- T/C (dose: 6.25 mg/kg/injection, schedule: Q01DX009 (ip), vehicle: saline): 97 % of control
- T/C (dose: 12.5 mg/kg/injection, schedule: Q01DX009 (ip), vehicle: saline): 111 % of control
- T/C (dose: 25.0 mg/kg/injection, schedule: Q01DX009 (ip), vehicle: saline): 103 % of control

Compound: NC1CNC(C(=O)O)=C(CC(=O)O)C1=O (stereo not given)
- T/C (dose: 4.25 mg/kg/injection, schedule: Q01DX005 (ip), vehicle: sodium bicarbonate): 101 % of control
- T/C (dose: 8.5 mg/kg/injection, schedule: Q01DX005 (ip), vehicle: sodium bicarbonate): 99 % of control
- T/C (dose: 17.0 mg/kg/injection, schedule: Q01DX005 (ip), vehicle: sodium bicarbonate): 106 % of control
- T/C (dose: 34.0 mg/kg/injection, schedule: Q01DX005 (ip), vehicle: sodium bicarbonate): 99 % of control

Compound: CCn1c2ccc([N+](=O)[O-])cc2c2c([N+](=O)[O-])c(N)ccc21
- T/C [1]: 92 % of control
- T/C [2]: 87 % of control
- T/C [3]: 90 % of control

Compound: COc1ccc2[nH]c(-c3ccccc3)cc2c1
- T/C (dose: 100.0 mg/kg/injection, schedule: Q04DX003 (ip), vehicle: saline with Tween-80): 105 % of control
- T/C (dose: 200.0 mg/kg/injection, schedule: Q04DX003 (ip), vehicle: saline with Tween-80): 110 % of control
- T/C (dose: 400.0 mg/kg/injection, schedule: Q04DX003 (ip), vehicle: saline with Tween-80): 100 % of control

Compound: C[Si](C)(C)/N=C(/O[Si](C)(C)C)C(F)(F)F
- T/C (dose: 60.0 mg/kg/injection, schedule: Q01DX005 (ip), vehicle: saline): 101 % of control
- T/C (dose: 120.0 mg/kg/injection, schedule: Q01DX005 (ip), vehicle: saline): 111 % of control
- T/C (dose: 240.0 mg/kg/injection, schedule: Q01DX005 (ip), vehicle: saline): 108 % of control

Compound: O=c1sc2ccccc2n1CN(CCO)Cn1c(=O)sc2ccccc21
- T/C [7]: 91 % of control
- T/C [8]: 89 % of control
- T/C (dose: 200.0 mg/kg/injection, schedule: Q01DX005 (ip), vehicle: Klucel (hydroxypropylcellulose) (HPC)): 90 % of control

Compound: COc1ccccc1NC(=O)C1=CNC(C)=C(C(=O)Nc2ccccc2OC)C1/C=C/c1ccccc1 (stereo not given)
- T/C [9]: 100 % of control
- T/C [10]: 105 % of control
- T/C [11]: 105 % of control

Compound: CCN=C(C1=C(O)c2ccccc2C1=O)c1ccccc1
- T/C (dose: 50.0 mg/kg/injection, schedule: Q04DX002 (ip), vehicle: saline with Tween-80): 94 % of control
- T/C (dose: 100.0 mg/kg/injection, schedule: Q04DX002 (ip), vehicle: saline with Tween-80): 119 % of control
- T/C (dose: 200.0 mg/kg/injection, schedule: Q04DX002 (ip), vehicle: saline with Tween-80): 111 % of control

Compound: C=CCOC(=O)C1=C(O[Si]C(C)(C)C)CCCC1
- T/C (dose: 50.0 mg/kg/injection, schedule: Q01DX009 (ip), vehicle: saline with Tween-80): 96 % of control
- T/C (dose: 100.0 mg/kg/injection, schedule: Q01DX009 (ip), vehicle: saline with Tween-80): 99 % of control
- T/C (dose: 200.0 mg/kg/injection, schedule: Q01DX009 (ip), vehicle: saline with Tween-80): 109 % of control

Compound: COc1ccc2c3c1OC1C(OC)(OC)C=CC4(F)[C@@H](C2)N(C)CC[C@]314 (stereo not given in full)
- T/C [4]: 105 % of control
- T/C [5]: 100 % of control
- T/C [6]: 96 % of control

Compound: c1c[se]c(-c2nc3ccccc3[nH]2)c1
- T/C (dose: 12.5 mg/kg/injection, schedule: Q01DX005 (ip), vehicle: Klucel (hydroxypropylcellulose) (HPC)): 99 % of control
- T/C [12]: 107 % of control
- T/C [7]: 110 % of control
- T/C [8]: 107 % of control

Compound: COc1ccccc1N1C(=O)/C(=N\OC(=O)c2c(-c3c(Cl)cccc3Cl)noc2C)SC1=S
- T/C [13]: 104 % of control
- T/C [14]: 90 % of control
- T/C [15]: 89 % of control

Compound: CCOC(=O)C1=CCC(n2cc(F)c(=O)[nH]c2=O)O1 (stereo not given)
- T/C [13]: 98 % of control
- T/C [14]: 101 % of control
- T/C [15]: 99 % of control
- T/C (dose: 400.0 mg/kg/injection, schedule: Q01DX009 (ip), vehicle: saline): 110 % of control

Compound: CNc1ccc2c(cc1=O)C(NC(C)=O)CCc1cc(OC)c(OC)c(OC)c1-2 (stereo not given)
- T/C (dose: 0.08 mg/kg/injection, schedule: Q01DX009 (ip), vehicle: Klucel (hydroxypropylcellulose) (HPC)): 157 % of control
- T/C (dose: 0.12 mg/kg/injection, schedule: Q01DX009 (ip), vehicle: Klucel (hydroxypropylcellulose) (HPC)): 157 % of control
- T/C (dose: 0.16 mg/kg/injection, schedule: Q01DX009 (ip), vehicle: Klucel (hydroxypropylcellulose) (HPC)): 174 % of control
- T/C (dose: 0.25 mg/kg/injection, schedule: Q01DX009 (ip), vehicle: Klucel (hydroxypropylcellulose) (HPC)): 150 % of control
- T/C (dose: 0.32 mg/kg/injection, schedule: Q01DX009 (ip), vehicle: Klucel (hydroxypropylcellulose) (HPC)): 166 % of control

Compound: O/N=C1/C(=N/O)N(c2ccccc2)CN1c1ccccc1
- T/C [16]: 102 % of control
- T/C [17]: 95 % of control
- T/C (dose: 30.0 mg/kg/injection, schedule: Q01DX005 (ip), vehicle: Klucel (hydroxypropylcellulose) (HPC)): 98 % of control

Compound: N#Cc1c2c(c(N3CCCCC3)n3c1nc1ccccc13)CCC2
- T/C (dose: 15.0 mg/kg/injection, schedule: Q01DX005 (ip), vehicle: saline with Tween-80): 98 % of control
- T/C (dose: 30.0 mg/kg/injection, schedule: Q01DX005 (ip), vehicle: saline with Tween-80): 102 % of control
- T/C [9]: 91 % of control and 95 % of control

Compound: CC(=O)c1c(C)n(-c2ccccc2)c2c1nnc1ccccc12
- T/C (dose: 3.75 mg/kg/injection, schedule: Q01DX005 (ip), vehicle: Klucel (hydroxypropylcellulose) (HPC)): 101 % of control
- T/C [16]: 93 % of control
- T/C [17]: 95 % of control
- T/C (dose: 120.0 mg/kg/injection, schedule: Q01DX005 (ip), vehicle: Klucel (hydroxypropylcellulose) (HPC)): 96 % of control

Compound: [Cl][Eu][Cl]
- T/C [13]: 87 % of control
- T/C [14]: 91 % of control

Compound: COc1ccccc1/C=C1/C(=O)ON=C1C
- T/C [9]: 100 % of control
- T/C [10]: 98 % of control
- T/C [11]: 108 % of control

Compound: CC(C)Cn1c(C(C)C)nc([N+](=O)[O-])c1Sc1ncn[nH]1
- T/C [12]: 108 % of control
- T/C [7]: 108 % of control and 118 % of control
- T/C [8]: 123 % of control

Compound: O=S1(=O)OC2(CCCCC2)c2ccccc21
- T/C (dose: 50.0 mg/kg/injection, schedule: Q01DX009 (ip), vehicle: Klucel (hydroxypropylcellulose) (HPC)): 106 % of control
- T/C (dose: 100.0 mg/kg/injection, schedule: Q01DX009 (ip), vehicle: Klucel (hydroxypropylcellulose) (HPC)): 108 % of control
- T/C (dose: 200.0 mg/kg/injection, schedule: Q01DX009 (ip), vehicle: Klucel (hydroxypropylcellulose) (HPC)): 108 % of control
- T/C (dose: 400.0 mg/kg/injection, schedule: Q01DX009 (ip), vehicle: Klucel (hydroxypropylcellulose) (HPC)): 109 % of control
